Experimental findings from patent EP0523675A1, “Inhibitory agent against HIV superinfection” (priority 1991, dated 1993) are described below.

This test has as its system HTLV-IIIB virus (superinfection of L-2 cells). Kind of test: Inhibition of superinfection of L-2 cells with HTLV-IIIB, fluorescent antibody technique using V-17 (anti-p18) antibody. It counts as cell-based, HIV (Human Immunodeficiency Virus). The note with it: peptide final concentration 1 mg/ml, mixed with HTLV-IIIB virus liquid M.O.I. = 3.2 for 30 min at room temperature, then inoculated into L-2 cells; checked every 4 days; Fig. 2.

Where no end group is shown, it is not given here.

As for TKGPSKLNDRADSRRS [CD4 peptide (45-60)], the “inhibitory effect on superinfection” value is on record as “not at all observed”.
